Data reported in patent US12060347B2 (BRISTOL-MYERS SQUIBB COMPANY, priority 2016, dated 2024).

biological target: T1, human PAR4 (Homo sapiens, UniProt Q96RI0); experiment: PAR4 FLIPR assay: antagonism of agonist-peptide-induced calcium mobilization in PAR4-expressing HEK293 cells; type: cell-based; conditions: H-Ala-Phe(4-F)-[…]NH2-induced intracellular calcium mobilization, 11-point curves
T1 construct: expressed in transfected cells; host or cells: HEK293 PAR4 Clone 1.2A (BMS Arctic ID 383940)
T1 sequence (Q96RI0 18-385): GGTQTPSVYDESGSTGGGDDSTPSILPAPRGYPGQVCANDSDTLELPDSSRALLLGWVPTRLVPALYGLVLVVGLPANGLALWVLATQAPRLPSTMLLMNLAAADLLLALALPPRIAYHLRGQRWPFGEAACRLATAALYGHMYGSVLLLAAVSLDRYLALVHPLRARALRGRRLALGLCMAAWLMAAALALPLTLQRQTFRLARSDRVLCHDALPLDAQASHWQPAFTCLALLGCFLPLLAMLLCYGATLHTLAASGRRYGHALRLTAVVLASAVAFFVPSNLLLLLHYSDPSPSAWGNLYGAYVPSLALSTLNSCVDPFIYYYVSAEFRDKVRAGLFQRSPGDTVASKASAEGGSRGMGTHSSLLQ

SMILES | IC50 [nM]
COc1ccc2nc(-c3cc(C)cc4nc(OC(F)F)cnc34)sc2n1 [Example 23, 2-(2-(difluoromethoxy)-7-methylquinoxalin-5-yl)-5-methoxythiazolo[5,4-b]pyridine] | 5.3
COc1cncc2nc(-c3cc(C)cc4nc(OC(F)F)cnc34)sc12 [Example 24, 2-(2-(difluoromethoxy)-7-methylquinoxalin-5-yl)-7-methoxythiazolo[4,5-c]pyridine] | 2
Cc1cc(-c2cc3c(o2)CCCC3NC(=O)OC(C)(C)C)c2ncc(OC(F)F)nc2c1 (stereo not shown) [Example 25, tert-butyl (2-(2-(difluoromethoxy)-7-methylquinoxalin-5-yl)-4,5,6,7-tetrahydrobenzofuran-4-yl)carbamate] | 130
COc1cnc2c(-c3nc4c(C)cc(OCCNS(=O)(=O)c5ccc(F)cc5)cc4s3)cc(C)cc2n1 [Example 26, 4-fluoro-N-(2-((2-(2-methoxy-7-methylquinoxalin-5-yl)-4-methylbenzo[d]thiazol-6-yl)oxy)ethyl)benzenesulfonamide] | 3.3
COc1cnc2c(-c3nc4c(Cl)cc(OCCNS(=O)(=O)c5ccccc5)cc4s3)cc(C)cc2n1 [Example 27, N-(2-((4-chloro-2-(2-methoxy-7-methylquinoxalin-5-yl)benzo[d]thiazol-6-yl)oxy)ethyl)benzenesulfonamide] | 5.4
COc1cnc2c(-c3nc4c(Cl)cc(OCCNS(=O)(=O)c5ccc(F)cc5)cc4s3)cc(C)cc2n1 [Example 28, N-(2-((4-chloro-2-(2-methoxy-7-methylquinoxalin-5-yl)benzo[d]thiazol-6-yl)oxy)ethyl)-4-fluorobenzenesulfonamide] | 3
COCc1cnc2c(-c3nc4c(C)cc(OCCNS(=O)(=O)c5ccc(F)cc5)cc4s3)cc(C)cc2n1 [Example 29, 4-fluoro-N-(2-((2-(2-(methoxymethyl)-7-methylquinoxalin-5-yl)-4-methylbenzo[d]thiazol-6-yl)oxy)ethyl)benzenesulfonamide] | 1.4
CCOc1cnc2c(-c3nc4c(C)cc(OCCNS(=O)(=O)c5ccc(F)cc5)cc4s3)cc(C)cc2n1 [Example 30, N-(2-((2-(2-ethoxy-7-methylquinoxalin-5-yl)-4-methylbenzo[d]thiazol-6-yl)oxy)ethyl)-4-fluorobenzenesulfonamide] | 4.7
CCc1cnc2c(-c3nc4c(C)cc(OCCNS(=O)(=O)c5ccc(F)cc5)cc4s3)cc(C)cc2n1 [Example 31, N-(2-((2-(2-ethyl-7-methylquinoxalin-5-yl)-4-methylbenzo[d]thiazol-6-yl)oxy)ethyl)-4-fluorobenzenesulfonamide] | 240
COC(=O)c1cnc2c(-c3nc4c(C)cc(OCCNS(=O)(=O)c5ccc(F)cc5)cc4s3)cc(C)cc2n1 [Example 32, methyl 5-(6-(2-(4-fluorophenylsulfonamido)ethoxy)-4-methylbenzo[d]thiazol-2-yl)-7-methylquinoxaline-2-carboxylate] | 3
Cc1cc(-c2nc3c(C)cc(OCCNS(=O)(=O)c4ccc(F)cc4)cc3s2)c2ncc(OC3CC3)nc2c1 [Example 33, N-(2-((2-(2-cyclopropoxy-7-methylquinoxalin-5-yl)-4-methylbenzo[d]thiazol-6-yl)oxy)ethyl)-4-fluorobenzenesulfonamide] | 120
Cc1cc(-c2nc3c(C)cc(OCCNS(=O)(=O)c4ccc(F)cc4)cc3s2)c2ncc(OCF)nc2c1 [Example 34, 4-fluoro-N-(2-((2-(2-(fluoromethoxy)-7-methylquinoxalin-5-yl)-4-methylbenzo[d]thiazol-6-yl)oxy)ethyl)benzenesulfonamide] | 1.6
COc1cnc2c(-c3nc4c(C)cc(OCc5cnc(-c6ccccc6)[nH]5)cc4s3)cc(C)cc2n1 [Example 35, 2-(2-methoxy-7-methylquinoxalin-5-yl)-4-methyl-6-((2-phenyl-1H-imidazol-5-yl)methoxy)benzo[d]thiazole] | 54
COc1cnc2c(-c3nc4c(C)cc(OCC(=O)NCc5ccccc5)cc4s3)cc(C)cc2n1 [Example 36, N-benzyl-2-((2-(2-methoxy-7-methylquinoxalin-5-yl)-4-methylbenzo[d]thiazol-6-yl)oxy)acetamide] | 7.7
COc1cnc2c(-c3cc4cccc(Cl)c4o3)cc(C)cc2n1 [Example 37, 5-(7-chlorobenzofuran-2-yl)-2-methoxy-7-methylquinoxaline] | 22
COc1cnc2c(-c3cc4cc(OCCOC(=O)Nc5ccnc(C)c5)cc(Cl)c4o3)cc(C)cc2n1 [Example 38, 2-((7-chloro-2-(2-methoxy-7-methylquinoxalin-5-yl)benzofuran-5-yl)oxy)ethyl (2-methylpyridin-4-yl)carbamate] | 2.1
COc1cnc2c(-c3cc4cc(OCCNS(=O)(=O)c5ccccc5)cc(Cl)c4o3)cc(C)cc2n1 [Example 39, N-(2-((7-chloro-2-(2-methoxy-7-methylquinoxalin-5-yl)benzofuran-5-yl)oxy)ethyl)benzenesulfonamide] | 10
Cc1cc(-c2cc3ccccc3s2)c2ncc(OC(F)F)nc2c1 [Example 40, 5-(benzo[b]thiophen-2-yl)-2-(difluoromethoxy)-7-methylquinoxaline] | 36

The next lines start with the values.

IC50 [nM] | SMILES
400 | COc1cccc2cc(-c3cc(C)cc4nc(OC(F)F)cnc34)oc12 [Example 41, 2-(difluoromethoxy)-5-(7-methoxybenzofuran-2-yl)-7-methylquinoxaline]
5.2 | COc1cccc2oc(-c3cc(C)cc4nc(OC(F)F)cnc34)cc12 [Example 42, 2-(difluoromethoxy)-5-(4-methoxybenzofuran-2-yl)-7-methylquinoxaline]
170 | COc1cnc2c(-c3cc4c(OCc5ccccc5)cccc4o3)cc(C)cc2n1 [Example 43, 5-(4-(benzyloxy)benzofuran-2-yl)-2-methoxy-7-methylquinoxaline]
220 | Cc1cc(-c2cc3cc(OCc4ccccc4)ccc3o2)c2ncc(OC(F)F)nc2c1 [Example 44, 5-(5-(benzyloxy)benzofuran-2-yl)-2-(difluoromethoxy)-7-methylquinoxaline]
99 | Cc1cc(-c2cn3ccccc3n2)c2ncc(OC(F)F)nc2c1 [Example 45, 2-(difluoromethoxy)-5-(imidazo[1,2-a]pyridin-2-yl)-7-methylquinoxaline]
17 | COC(=O)NCCOc1ccc2oc(-c3cc(C)cc4nc(OC(F)F)cnc34)cc2c1 [Example 46, methyl 2-(2-(2-(difluoromethoxy)-7-methylquinoxalin-5-yl)benzofuran-5-yloxy)ethylcarbamate]
34 | Cc1cc(-c2nc3ccccc3[nH]2)c2ncc(OC(F)F)nc2c1 [Example 47, 5-(1H-benzo[d]imidazol-2-yl)-2-(difluoromethoxy)-7-methylquinoxaline]
2.1 | COc1ccc2nc(-c3cc(C)cc4nc(OC(F)F)cnc34)sc2c1 [Example 48, 2-(2-(difluoromethoxy)-7-methylquinoxalin-5-yl)-6-methoxybenzo[d]thiazole]
9.7 | Cc1cc(-c2cc3cc(OCC(=O)OC(C)(C)C)ccc3o2)c2ncc(OC(F)F)nc2c1 [Example 49, tert-butyl 2-(2-(2-(difluoromethoxy)-7-methylquinoxalin-5-yl)benzofuran-5-yloxy) acetate]
92 | COc1ccc2[nH]c(-c3cc(C)cc4nc(OC(F)F)cnc34)nc2c1 [Example 50, 2-(difluoromethoxy)-5-(5-methoxy-1H-benzo[d]imidazol-2-yl)-7-methylquinoxaline]
180 | COc1cccc2sc(-c3cc(C)cc4nc(OC(F)F)cnc34)nc12 [Example 51, 2-(2-(difluoromethoxy)-7-methylquinoxalin-5-yl)-4-methoxybenzo[d]thiazole]
4.7 | Cc1cc(-c2nc3c(C)cccc3s2)c2ncc(OC(F)F)nc2c1 [Example 52, 2-(2-(difluoromethoxy)-7-methylquinoxalin-5-yl)-4-methylbenzo[d]thiazole]
9.8 | Cc1cc(-c2nc3c(F)cccc3s2)c2ncc(OC(F)F)nc2c1 [Example 53, 2-(2-(difluoromethoxy)-7-methylquinoxalin-5-yl)-4-fluorobenzo[d]thiazole]
94 | CNCCOc1ccc2oc(-c3cc(C)cc4nc(OC(F)F)cnc34)cc2c1 [Example 54, 2-(2-(2-(difluoromethoxy)-7-methylquinoxalin-5-yl)benzofuran-5-yloxy)-N-methylethanamine]
14 | COc1cc(OC)c2nc(-c3cc(C)cc4nc(OC(F)F)cnc34)sc2c1 [Example 55, 2-(2-(difluoromethoxy)-7-methylquinoxalin-5-yl)-4,6-dimethoxybenzo[d]thiazole]
4.7 | COc1ccc2oc(-c3cc(C)cc4nc(OC)cnc34)cc2c1 [Example 56, 2-methoxy-5-(5-methoxybenzofuran-2-yl)-7-methylquinoxaline]
3 | COc1cccc2nc(-c3cc(C)cc4nc(OC(F)F)cnc34)sc12 [Example 58, 2-(2-(difluoromethoxy)-7-methylquinoxalin-5-yl)-7-methoxybenzo[d]thiazole]
19 | Cc1cc(-c2nc3cc(F)ccc3s2)c2ncc(OC(F)F)nc2c1 [Example 60, 2-(2-(difluoromethoxy)-7-methylquinoxalin-5-yl)-5-fluorobenzo[d]thiazole]
43 | COC(=O)c1cccc2nc(-c3cc(C)cc4nc(OC(F)F)cnc34)sc12 [Example 61, Methyl 2-(2-(difluoromethoxy)-7-methylquinoxalin-5-yl)benzo[d]thiazole-7-carboxylate]
